{"source": "patent US7955816B2", "about": "“Design and synthesis of biotinylated probes for N-acyl-ethanolamines” (Universita Degli Studi Di Roma “Tor Vergata”, priority 2006, dated 2011)", "key": {"[1]": {"test_system": "AEA membrane transporter (AMT)", "assay": "AMT assay in HaCaT cells: uptake of the radiolabelled compound as substrate", "assay_type": "cell-based, human", "conditions": "intact HaCaT cells", "description": "(§1) HaCaT cells [Maccarrone et al., 2003], were cultured in Dulbecco's minimal essential supplemented with 10% fetal calf serum and 100 units/mL streptomycin/penicillin at 37° C. in a 5% CO2 humidified atmosphere. Cells were split twice a week at 1:5 ratio using 0.05% trypsin (w/v), 0.02% EDTA (w/v) in phosphate-buffered saline (PBS). These cells were grown in six-well plates (2×10^6 cells/well) and were incubated for 10 min at 37° C. with [^3H]AEA (Perkin-Elmer Life Sciences, Inc.; Boston, Mass.) or [^3H]b-AEA, and were washed three times with cold PBS containing 1% bovine serum albumin. To discriminate noncarrier-mediated from carrier-mediated transport of AEA, control experiments were carried out at 4° C. and the values subtracted from those at 37° C. Then, the cells were solubilized in 1 ml of 0.1 M NaOH and neutralized (50 μl of concentrated HCl), and radioactivity was determined by liquid scintillation counting. Incubations were also carried out with different concentrations of [^3H]AEA or [^3H]b-AEA, as indicated in the figures, to determine the apparent Michaelis-Menten constant (Km) and maximum velocity (Vmax). The effect of different compounds on AEA or b-AEA uptake was determined by adding each substance directly to the incubation medium, at different concentrations. The results are shown in FIG. 2A, Table 1 and Table 2."}, "[2]": {"target": "T1, fatty acid amide hydrolase (FAAH) (Homo sapiens, UniProt O00519)", "T1 construct": "The reaction was initiated by the addition of HaCaT cell extracts; endogenous in cells; host or cells: HaCaT cell extracts", "T1 sequence (O00519 1-579)": "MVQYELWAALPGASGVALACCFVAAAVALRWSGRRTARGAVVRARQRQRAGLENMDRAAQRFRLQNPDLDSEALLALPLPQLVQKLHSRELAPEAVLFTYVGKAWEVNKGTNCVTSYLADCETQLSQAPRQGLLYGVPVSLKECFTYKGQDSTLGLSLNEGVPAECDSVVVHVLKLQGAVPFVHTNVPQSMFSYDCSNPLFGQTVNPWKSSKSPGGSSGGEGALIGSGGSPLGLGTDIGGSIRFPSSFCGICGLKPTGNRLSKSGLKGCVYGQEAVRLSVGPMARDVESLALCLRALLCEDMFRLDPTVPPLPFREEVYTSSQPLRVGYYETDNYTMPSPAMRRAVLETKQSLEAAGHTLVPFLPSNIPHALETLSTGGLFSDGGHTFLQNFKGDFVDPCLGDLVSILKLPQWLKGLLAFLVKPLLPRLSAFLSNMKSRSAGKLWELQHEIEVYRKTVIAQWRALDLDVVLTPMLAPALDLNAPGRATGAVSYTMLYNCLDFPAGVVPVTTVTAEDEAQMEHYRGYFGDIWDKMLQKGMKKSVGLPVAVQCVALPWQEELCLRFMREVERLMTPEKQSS", "assay": "FAAH activity in HaCaT cell extracts, compound as substrate", "assay_type": "biochemical", "conditions": "for hydrolysis by FAAH (substrate or not): FIG. 2B", "description": "(§2) The assay of fatty acid amide hydrolase (E.C. 3.5.1.4, arachidonoylethanolamide amidohydrolase; FAAH) was performed by measuring the release of [^3H]AA from [^3H]AEA (68 mCi/mmol) or [^3H]b-AEA (10 mCi/mmol) through reversed phase high performance liquid chromatography (RP-HPLC) and on-line scintillation counting. [^3H]AEA or [^3H]b-AEA was added to hydrolase assay buffer (50 mM Tris.HCl, pH 9.0) at the indicated concentrations. The reaction was initiated by the addition of HaCaT cell extracts, was continued at 37° C. for 15 min, and then was stopped by the addition of methanol/chloroform/water, with vortexing. This mixture was centrifuged at 3000×g for 5 min, the lower organic phase was dried and the pellet was resuspended in 20 μl of methanol and subjected to RP-HPLC analysis for AA quantitation. The separations of [^3H]AEA or [^3H]b-AEA from [^3H]AA were carried out on a C18 (5 μm, 3.0×150 mm) column, with a mobile phase of methanol-water-acetic acid (85:15:0.1, v/v/v), at a flow rate of 0.8 ml/min. The amount [^3H]AA formed were calculated from the corresponding peak areas. The effect of different concentrations of b-AEA on [^3H]AEA hydrolysis was ascertained by adding the “cold” compound directly to the assay buffer. FAAH activity was expressed as pmol [^3H]AA released from [^3H]AEA per min per mg protein. The results are shown in FIG. 2B, Table 1 and Table 2."}, "HaCaT cells [3]": {"test_system": "HaCaT cells", "assay": "HaCaT cell differentiation (cornified envelope formation)", "assay_type": "cell-based, human", "parameters": "dose or concentration left out as unconfirmed", "conditions": "5 days, FIG. 4", "description": "Cell differentiation was induced by treating HaCaT cells with 12-O-tetradecanoylphorbol 13-acetate (TPA; 10 ng/ml) plus calcium chloride (CaCl2; 1.2 mM) for 5 days, as reported [Maccarrone et al., 2003]. AEA and b-AEA (or vehicle in the controls) were added directly to the culture medium at the same time as TPA plus calcium. Cornified envelope (CE), a hallmark of keratinocyte differentiation, was extracted from HaCaT cells (5×10^6/test) by exhaustive boiling and sonication in 2% SDS, 20 mM dithiothreitol, 0.1 M Tris-HCl pH 8.0, and 0.5 mM EDTA. CEs were then purified on Ficoll gradients and recovered as sonicated fragments, free of soluble keratin/filaggrin proteins, after pelleting through Ficoll as previously described [Maccarrone et al., 2003]. CE formation was quantified by spectrophotometry at 600 nm and was normalized to the protein content."}, "HaCaT cells [4]": {"test_system": "HaCaT cells", "conditions": "Maccarrone et al., 2003, cited from earlier work"}, "HaCaT cells [5]": {"test_system": "HaCaT cells", "assay": "Fluorescence microscopy of b-AEA transport in HaCaT cells", "assay_type": "cell-based, human", "description": "HaCaT cells were plated at a density of 6×10^4 cells/ml on collagen-coated (0.5 mg/ml; Sigma, St. Louis, Mo.) glass coverslips (12 mm). Twenty-four hours after plating, cultures were either left untreated (by adding […] biotin EZ-Link Biotin-PEO-Amine, as negative control) or incubated with […] b-AEA for 10 min at 37° C. in a 5% CO2 humidified atmosphere. […] All steps of the immunofluorescence procedure were performed at room temperature. Cells were washed, fixed with 3% paraformaldehyde (Sigma) for 20 min, and then permeabilized with 0.1% Triton X-100 in PBS for 15 min. After a blocking step in Image-iT™ FX signal enhancer (Molecular Probes, Eugene, Oreg.) for 30 min, cells were incubated for 1 h with anti-biotin primary antibody (Molecular Probes, Eugene, Oreg.), diluted 1:50 in Image-iT™ FX signal enhancer. […] N-Piperidino-5-(4-chlorophenyl)-1-(2,4-dichloro-phenyl)-4-methyl-3-pyrazole carboxamide (SR141716), and N-[1(S)-endo-1,3,3-trimethyl-bicyclo[2.2.1]heptan-2-yl]-5-(4-chloro-3-methylphenyl)-1-(4-methyl-benzyl)-pyrazole-3-carboxa-mide (SR144528) were kind gifts from Sanofi-Aventis Recherche (Montpellier, France). OMDM-1 was a kind gift from Dr. S. Marinelli (Experimental Neurology, IRCCS Fondazione Santa Lucia, Rome, Italy)."}, "CB1R [6]": {"target": "T2, CB1R (Homo sapiens, UniProt P21554)", "T2 construct": "endogenous in cells; host or cells: HaCaT cell membrane fractions", "T2 sequence (P21554 whole entry)": "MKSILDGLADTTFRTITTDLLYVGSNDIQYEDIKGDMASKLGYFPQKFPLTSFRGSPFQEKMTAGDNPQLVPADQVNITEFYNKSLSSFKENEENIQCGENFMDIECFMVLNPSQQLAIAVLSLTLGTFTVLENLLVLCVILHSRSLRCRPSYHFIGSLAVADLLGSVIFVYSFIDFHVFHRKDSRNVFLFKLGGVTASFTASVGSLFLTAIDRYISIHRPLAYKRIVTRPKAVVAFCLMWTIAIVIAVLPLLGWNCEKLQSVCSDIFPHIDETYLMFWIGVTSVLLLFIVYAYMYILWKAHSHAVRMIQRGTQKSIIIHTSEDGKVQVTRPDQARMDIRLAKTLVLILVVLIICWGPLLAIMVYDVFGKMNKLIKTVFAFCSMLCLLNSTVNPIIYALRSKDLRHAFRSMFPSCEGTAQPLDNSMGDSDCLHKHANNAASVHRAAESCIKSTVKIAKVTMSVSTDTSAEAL", "assay_type": "binding", "conditions": "HaCaT membranes, FIG. 2C"}, "[7]": {"test_system": "AEA membrane transporter (AMT)", "assay": "Inhibition of [3H]AEA uptake by AMT in intact HaCaT cells", "assay_type": "cell-based, human", "conditions": "0.5 μM [3H]AEA, read-out: IC50 for reduction of AEA uptake by AMT", "description": "as §1"}, "[8]": {"target": "T1, fatty acid amide hydrolase (FAAH)", "assay": "Inhibition of [3H]AEA hydrolysis by FAAH in HaCaT cell extracts", "assay_type": "biochemical", "conditions": "at concentrations up to 10 μM", "description": "as §2"}, "NAPE-PLD": {"target": "T3, NAPE-PLD (Homo sapiens, UniProt Q6IQ20)", "T3 construct": "endogenous in cells; host or cells: HaCaT cell extracts", "T3 sequence (Q6IQ20 whole entry)": "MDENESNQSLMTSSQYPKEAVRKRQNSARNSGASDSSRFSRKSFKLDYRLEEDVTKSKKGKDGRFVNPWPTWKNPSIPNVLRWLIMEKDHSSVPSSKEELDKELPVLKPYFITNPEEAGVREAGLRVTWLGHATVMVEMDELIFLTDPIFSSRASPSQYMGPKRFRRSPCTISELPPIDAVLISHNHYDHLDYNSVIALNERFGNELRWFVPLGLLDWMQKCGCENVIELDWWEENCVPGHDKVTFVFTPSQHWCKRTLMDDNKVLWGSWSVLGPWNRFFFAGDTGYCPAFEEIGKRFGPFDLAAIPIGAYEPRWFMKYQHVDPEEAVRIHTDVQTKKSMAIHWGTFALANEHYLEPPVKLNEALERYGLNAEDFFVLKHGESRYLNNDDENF", "assay": "NAPE-PLD activity in HaCaT cell extracts", "assay_type": "biochemical", "conditions": "at concentrations up to 10 μM", "description": "HaCaT cell extracts (100 μg/test) were incubated at 37° C. for 30 min with a clear mixture of [^3H]NArPE (ARC; St. Louis, Mo.) and NArPE (“cold” NArPE was synthesized from AA and phosphatidylethanolamine) at a final specific activity of 6.8 nCi/nmol, in 200 μl of 50 mM Tris-HCl, pH 7.4, containing 0.1% Triton X-100. A mixture of chloroform/methanol (2:1, v/v; 600 μl) was added to stop the reaction. Then, the samples were vortexed and centrifuged at room temperature, and the lower organic phase was dried. The pellet was resuspended in 20 μl of methanol and subjected to RP-HPLC coupled to on-line scintillation counting. The separations were carried out on a C18 (5 μm, 3.0×150 mm) column with a mobile phase of methanol-water-acetic acid (85:15:0.1, v/v/v), at a flow rate of 0.8 ml/min. The amount of [^3H]AEA formed was calculated from the corresponding peak areas. The identity of the peaks was assessed also by UV detection of cold standard, recording absorbance at 204 nm. The effect of b-AEA on NAPE-PLD activity was ascertained by adding different concentrations of the biotin-derivative directly to the assay buffer. NAPE-PLD activity was expressed as pmol [^3H]AEA released from [^3H]NArPE per min per mg protein."}, "CB1R [9]": {"target": "T4, CB1R (Mus musculus, UniProt P47746)", "T4 construct": "membrane preparations from mouse brain or mouse spleen were used; from tissue; host or cells: mouse brain membrane fractions", "T4 sequence (P47746 whole entry)": "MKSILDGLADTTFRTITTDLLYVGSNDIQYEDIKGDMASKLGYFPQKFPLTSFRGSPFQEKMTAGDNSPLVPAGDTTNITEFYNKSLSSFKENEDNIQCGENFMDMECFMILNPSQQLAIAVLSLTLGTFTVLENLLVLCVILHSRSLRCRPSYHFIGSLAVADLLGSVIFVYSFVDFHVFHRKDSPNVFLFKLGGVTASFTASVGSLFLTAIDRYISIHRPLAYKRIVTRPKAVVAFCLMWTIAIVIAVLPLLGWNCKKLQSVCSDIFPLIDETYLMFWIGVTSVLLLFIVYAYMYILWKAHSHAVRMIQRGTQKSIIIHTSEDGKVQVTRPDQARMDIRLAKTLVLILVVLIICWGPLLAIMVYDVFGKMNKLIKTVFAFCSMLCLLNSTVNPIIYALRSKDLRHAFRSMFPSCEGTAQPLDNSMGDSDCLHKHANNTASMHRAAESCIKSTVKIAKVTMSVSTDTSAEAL", "assay": "[3H]CP55.940 binding in mouse brain membrane fractions", "conditions": "mouse brain membranes, read-out: IC50 on CB1 receptors"}, "CB2R": {"target": "T5, CB2R (Mus musculus, UniProt P47936)", "T5 construct": "membrane preparations from mouse brain or mouse spleen were used; from tissue; host or cells: mouse spleen membrane fractions", "T5 sequence (P47936 whole entry)": "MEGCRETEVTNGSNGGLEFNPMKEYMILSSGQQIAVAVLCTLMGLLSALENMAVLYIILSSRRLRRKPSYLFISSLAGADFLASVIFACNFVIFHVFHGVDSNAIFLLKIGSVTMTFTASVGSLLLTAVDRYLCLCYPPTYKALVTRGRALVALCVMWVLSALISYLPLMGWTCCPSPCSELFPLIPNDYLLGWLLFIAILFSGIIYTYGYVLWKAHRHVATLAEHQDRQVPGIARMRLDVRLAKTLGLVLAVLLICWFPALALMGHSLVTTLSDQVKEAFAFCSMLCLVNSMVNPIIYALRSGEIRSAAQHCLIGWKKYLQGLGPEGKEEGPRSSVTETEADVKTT", "assay": "[3H]CP55.940 binding in mouse spleen membrane fractions", "conditions": "mouse spleen membranes, read-out: IC50 on CB2 receptors"}, "TRPV1": {"target": "T6, TRPV1 (Rattus norvegicus, UniProt O35433)", "T6 construct": "membrane fractions isolated from rat neuroblastoma C6 cells were used; endogenous in cells; host or cells: rat C6 cells, membrane fractions", "T6 sequence (O35433 whole entry)": "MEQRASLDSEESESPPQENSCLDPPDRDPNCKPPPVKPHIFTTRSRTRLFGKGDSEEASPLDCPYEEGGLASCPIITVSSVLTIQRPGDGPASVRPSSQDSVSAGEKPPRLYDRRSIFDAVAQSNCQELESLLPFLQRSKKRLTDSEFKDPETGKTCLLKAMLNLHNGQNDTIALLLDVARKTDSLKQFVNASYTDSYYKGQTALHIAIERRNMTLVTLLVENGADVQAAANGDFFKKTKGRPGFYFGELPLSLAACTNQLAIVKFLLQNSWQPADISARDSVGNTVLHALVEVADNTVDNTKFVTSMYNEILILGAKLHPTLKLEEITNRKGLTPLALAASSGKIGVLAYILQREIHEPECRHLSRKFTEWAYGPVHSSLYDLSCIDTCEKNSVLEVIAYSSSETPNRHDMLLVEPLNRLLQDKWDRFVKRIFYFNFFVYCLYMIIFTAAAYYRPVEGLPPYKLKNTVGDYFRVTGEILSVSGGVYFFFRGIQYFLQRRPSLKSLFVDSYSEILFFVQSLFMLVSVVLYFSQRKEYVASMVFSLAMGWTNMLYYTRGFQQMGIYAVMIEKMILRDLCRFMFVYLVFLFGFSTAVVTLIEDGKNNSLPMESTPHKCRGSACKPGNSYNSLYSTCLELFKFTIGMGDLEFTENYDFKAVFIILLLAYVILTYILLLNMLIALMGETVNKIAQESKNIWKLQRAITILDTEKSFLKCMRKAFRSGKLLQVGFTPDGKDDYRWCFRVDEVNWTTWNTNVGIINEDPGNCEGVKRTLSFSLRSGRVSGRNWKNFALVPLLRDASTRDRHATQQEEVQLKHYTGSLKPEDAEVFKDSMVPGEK", "assay": "[3H]RTX binding in C6 cells membrane fractions", "conditions": "competition with [3H]RTX; read-out: IC50 on TRPV1 receptors"}}, "data": [{"smiles": "CCCCC/C=C\\C/C=C\\C/C=C\\C/C=C\\CCCC(=O)NCCO", "note": "[AEA, N-arachidonoylethanolamine]", "values": [{"measurement": "AMT Vmax", "setting": "[1]", "value": "124 ± 8", "unit": "pmol/min per mg protein"}, {"measurement": "Km", "setting": "[1]", "value": "0.353 ± 0.06", "unit": "µM"}, {"measurement": "hydrolysis by FAAH (substrate or not)", "setting": "[2]", "value": "hydrolyzed in a concentration-dependent manner"}, {"measurement": "FAAH Vmax", "setting": "[2]; compound as substrate", "value": "385 ± 25", "unit": "pmol/min per mg protein"}, {"measurement": "effect on HaCaT cell differentiation (CE formation induced by TPA+calcium)", "setting": "HaCaT cells [3]", "value": "blocked"}, {"measurement": "effect on CE formation in HaCaT cells", "setting": "HaCaT cells [4]; maximum effect at 1 μM", "value": "dose-dependently reduces CE formation"}]}, {"smiles": "NC(=O)c1cccc(-c2cccc(OC(=O)NC3CCCCC3)c2)c1", "note": "[URB597]", "values": [{"measurement": "effect on uptake and intracellular trafficking of b-AEA in HaCaT cells", "setting": "HaCaT cells [5]; 1 μM, added 5 min before probe", "value": "did not affect"}]}, {"smiles": "CCCCCCCC/C=C\\CCCCCCCC(=O)N[C@H](CO)Cc1ccc(O)cc1", "note": "[OMDM-1]", "values": [{"measurement": "effect on b-AEA immunostaining (uptake) of HaCaT cells", "setting": "HaCaT cells [5]; 5 μM, added 5 min before probe", "value": "remarkable decrease of immunostaining"}]}, {"smiles": "Cc1c(C(=O)NN2CCCCC2)nn(-c2ccc(Cl)cc2Cl)c1-c1ccc(Cl)cc1", "note": "[SR141716, N-Piperidino-5-(4-chlorophenyl)-1-(2,4-dichloro-phenyl)-4-methyl-3-pyrazole carboxamide]", "values": [{"measurement": "reversal of the AEA effect on CE formation", "setting": "HaCaT cells [4]; 0.1 μM", "value": "fully reversed"}]}, {"smiles": "CCCCC/C=C\\C/C=C\\C/C=C\\C/C=C\\CCCC(=O)NCCOCCOCCNC(=O)CCCC[C@@H]1SC[C@@H]2NC(=O)N[C@@H]21", "note": "[b-AEA, (+)-N-arachidonoyl-biotinyl-3,6-dioxaoctanediamine]", "values": [{"measurement": "AMT Vmax", "setting": "[1]", "value": "116 ± 10", "unit": "pmol/min per mg protein"}, {"measurement": "Km", "setting": "[1]", "value": "0.421 ± 0.088", "unit": "µM"}, {"measurement": "AMT Vmax", "setting": "[1]; listed as [^3H]b-AEA", "value": "116 ±10", "unit": "pmol/min per mg protein"}, {"measurement": "hydrolysis by FAAH (substrate or not)", "setting": "[2]", "value": "not a substrate for FAAH"}, {"measurement": "binding to CB1 receptors of HaCaT cells", "setting": "CB1R [6]", "value": "did not bind"}, {"measurement": "IC50", "setting": "[7]", "value": "0.5 ± 0.1", "unit": "µM"}, {"measurement": "effect on FAAH activity of HaCaT cells", "setting": "[8]", "value": "does not affect"}, {"measurement": "effect on NAPE-PLD activity of HaCaT cells", "setting": "NAPE-PLD", "value": "does not affect"}, {"measurement": "IC50", "setting": "CB1R [9]", "value": "> 10", "unit": "µM"}, {"measurement": "IC50", "setting": "CB2R", "value": "> 10", "unit": "µM"}, {"measurement": "IC50", "setting": "TRPV1", "value": "> 10", "unit": "µM"}, {"measurement": "uptake by HaCaT cells seen by immunofluorescence", "setting": "HaCaT cells [5]; 5 M per test, FIG. 3", "value": "cells quickly take up b-AEA"}, {"measurement": "effect on HaCaT cell differentiation (CE formation induced by TPA+calcium)", "setting": "HaCaT cells [3]", "value": "ineffective"}]}]}
